From patent publication US20150105252A1, “SUBSTITUTED PYRAZOLES AS HERBICIDES” (E I DU PONT DE NEMOURS AND COMPANY, priority 2013, published 2015)

Legend:
barnyardgrass [1] = test: Test A preemergence; type: in vivo, Echinochloa crus-galli; settings: preemergence
Method in brief: (§1)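 Visual injury ratings, 0 = no effect to 100 = complete control, taken about 10 days after treatment against untreated controls. Test chemicals, in a non-phytotoxic surfactant-containing solvent, were sprayed onto soil preemergence or onto one- to two-leaf plants (2–10 cm) postemergence, in loam–sand soil under greenhouse conditions.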

crabgrass, large = test: Test A postemergence; type: in vivo, Digitaria sanguinalis
Method in brief: as §1

velvetleaf [2] = test: Test A postemergence; type: in vivo, Abutilon theophrasti
Method in brief: as §1

corn [3] = test: Test A postemergence; type: in vivo, Zea mays
Method in brief: as §1

blackgrass = test: Test C preemergence; type: in vivo, Alopecurus myosuroides; settings: for Blackgrass plant response rating: scale 0 to 100 (0 no effect, 100 complete control)
Method in brief: (§2)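 In this greenhouse assay, seeded soil (loam plus sand) or emerged seedlings in peat-vermiculite medium were treated with formulated compound. Roughly two weeks later (13–15 days), each species was scored visually relative to controls, from 0 for no effect to 100 for complete control.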

ryegrass, Italian = test: Test C preemergence; type: in vivo, Lolium multiflorum; settings: for Ryegrass, Italian plant response rating: scale 0 to 100 (0 no effect, 100 complete control)
Method in brief: as §2

wheat = test: Test C preemergence; type: in vivo, Triticum aestivum; settings: for Wheat plant response rating: scale 0 to 100 (0 no effect, 100 complete control)
Method in brief: as §2

galium = test: Test C preemergence; type: in vivo, Galium aparine; settings: for Galium plant response rating: scale 0 to 100 (0 no effect, 100 complete control)
Method in brief: as §2

corn [4] = test: Test C preemergence; type: in vivo, Zea mays; settings: for Corn plant response rating: scale 0 to 100 (0 no effect, 100 complete control)
Method in brief: as §2

johnsongrass = test: Test C preemergence; type: in vivo, Sorghum halepense; settings: for Johnsongrass plant response rating: scale 0 to 100 (0 no effect, 100 complete control)
Method in brief: as §2

pigweed = test: Test C preemergence; type: in vivo, Amaranthus retroflexus; settings: for Pigweed plant response rating: scale 0 to 100 (0 no effect, 100 complete control)
Method in brief: as §2

soybean = test: Test C preemergence; type: in vivo, Glycine max; settings: for Soybean plant response rating: scale 0 to 100 (0 no effect, 100 complete control)
Method in brief: as §2

barnyardgrass [5] = test: Test C preemergence; type: in vivo, Echinochloa crus-galli; settings: for Barnyardgrass plant response rating: scale 0 to 100 (0 no effect, 100 complete control)
Method in brief: as §2

oilseed rape = test: Test C preemergence; type: in vivo, Brassica napus; settings: for Oilseed Rape plant response rating: scale 0 to 100 (0 no effect, 100 complete control)
Method in brief: as §2

velvetleaf [6] = test: Test C preemergence; type: in vivo, Abutilon theophrasti; settings: for Velvetleaf plant response rating: scale 0 to 100 (0 no effect, 100 complete control)
Method in brief: as §2

[7] = Postemergence, 500 g ai/ha, 0 to 100 scale (0 no effect, 100 complete control)
[8] = postemergence, 125 g ai/ha, about 10 days, visual rating on 0 to 100 scale (0 no effect, 100 complete control)
[9] = preemergence, 31 g ai/ha, visual rating, 13 to 15 days
[10] = preemergence, 62 g ai/ha, 13 to 15 days
[11] = preemergence, 125 g ai/ha, 13 to 15 days, scale 0 to 100, 0 = no effect, 100 = complete control

## CCCc1cc(C(=O)NCC)nn1Cc1cc(C(F)(F)F)nn1C [Compound 129]
Barnyardgrass [1]; 125 g ai/ha, visual injury, 0 to 100 scale, approx. 10 days
  Barnyardgrass plant response rating: 90
Barnyardgrass [1]; 500 g ai/ha, visual injury after approx. 10 days, 0 to 100 scale (0 no effect, 100 complete control)
  Barnyardgrass plant response rating: 100
crabgrass, large; [7]
  Crabgrass, Large plant response rating: 90
crabgrass, large; [8]
  Crabgrass, Large plant response rating: 80
Velvetleaf [2]; [7]
  Velvetleaf plant response rating: 100
Velvetleaf [2]; [8]
  Velvetleaf plant response rating: 90
Corn [3]; [7]
  Corn plant response rating: 80
Corn [3]; [8]
  Corn plant response rating: 50
blackgrass; Preemergence, 250 g ai/ha
  Plant response rating (scale of 0 to 100), Blackgrass: 90
blackgrass; [9]
  Blackgrass plant response rating: 60
blackgrass; [10]
  Blackgrass plant response rating: 80
blackgrass; [11]
  Plant response rating, Blackgrass: 90
ryegrass, Italian; Preemergence, 250 g ai/ha
  Plant response rating (scale of 0 to 100), Ryegrass, Italian: 95
ryegrass, Italian; [9]
  Ryegrass, Italian plant response rating: 5
ryegrass, Italian; [10]
  Ryegrass, Italian plant response rating: 90
ryegrass, Italian; [11]
  Plant response rating, Ryegrass, Italian: 95
wheat; Preemergence, 250 g ai/ha
  Plant response rating (scale of 0 to 100), Wheat: 90
wheat; [9]
  Wheat plant response rating: 0
wheat; [10]
  Wheat plant response rating: 35
wheat; [11]
  Plant response rating, Wheat: 85
galium; Preemergence, 250 g ai/ha
  Plant response rating (scale of 0 to 100), Galium: 100
galium; [9]
  Galium plant response rating: 100
galium; [10]
  Galium plant response rating: 100
galium; [11]
  Plant response rating, Galium: 95
Corn [4]; Preemergence, 250 g ai/ha
  Plant response rating (scale of 0 to 100), Corn: 65
Corn [4]; [9]
  Corn plant response rating: 0
Corn [4]; [10]
  Corn plant response rating: 15
Corn [4]; [11]
  Plant response rating, Corn: 55
johnsongrass; Preemergence, 250 g ai/ha
  Plant response rating (scale of 0 to 100), Johnsongrass: 100
johnsongrass; [9]
  Johnsongrass plant response rating: 10
johnsongrass; [10]
  Johnsongrass plant response rating: 70
johnsongrass; [11]
  Plant response rating, Johnsongrass: 98
pigweed; Preemergence, 250 g ai/ha
  Plant response rating (scale of 0 to 100), Pigweed: 100
pigweed; [9]
  Pigweed plant response rating: 100
pigweed; [10]
  Pigweed plant response rating: 100
pigweed; [11]
  Plant response rating, Pigweed: 100
soybean; Preemergence, 250 g ai/ha
  Plant response rating (scale of 0 to 100), Soybean: 98
soybean; [9]
  Soybean plant response rating: 40
soybean; [10]
  Soybean plant response rating: 55
soybean; [11]
  Plant response rating, Soybean: 98
Barnyardgrass [5]; Preemergence, 250 g ai/ha
  Plant response rating (scale of 0 to 100), Barnyardgrass: 100
Barnyardgrass [5]; preemergence, 31 g ai/ha, 13 to 15 days
  Barnyardgrass plant response rating: 95
Barnyardgrass [5]; [10]
  Barnyardgrass plant response rating: 100
Barnyardgrass [5]; [11]
  Plant response rating, Barnyardgrass: 100
Oilseed rape; Preemergence, 250 g ai/ha
  Plant response rating (scale of 0 to 100), Oilseed Rape: 100
Oilseed rape; [9]
  Oilseed Rape plant response rating: 95
Oilseed rape; [10]
  Oilseed Rape plant response rating: 95
Oilseed rape; [11]
  Plant response rating, Oilseed Rape: 100
Velvetleaf [6]; Preemergence, 250 g ai/ha
  Plant response rating (scale of 0 to 100), Velvetleaf: 100
Velvetleaf [6]; [9]
  Velvetleaf plant response rating: 55
Velvetleaf [6]; [10]
  Velvetleaf plant response rating: 100
Velvetleaf [6]; [11]
  Plant response rating, Velvetleaf: 100
